Assay results: US20200261427A1 (Al Therapeutics, Inc., priority 2019, published 2020)
Converted amounts (≈) assume the structure as drawn.

Legend:
[1] = pH stability screen of rapamycin in 1:1 ethanol:water; type: physicochemical; details: 0.1 mg/mL in 1:1 ethanol:water, pH 3, 5, unbuffered; 1 week at 5, 25, 40° C. (FIG. 2)
Procedure: 20 mM citrate buffers were prepared at pH 3, 5 and 7. With the exception of the pH 7 buffer, these buffers were miscible in 50% ethanol. Rather than reduce the buffer concentration to obtain a higher pH, the third solution was prepared with unbuffered water. An Orion 710A+ pH meter with a Thermo Scientific electrode was used for pH measurement.

[2] = Solubility screening by gravimetric analysis; type: physicochemical
Procedure: Solubility screening was performed by gravimetric analysis. In a glass vial, known amounts of API were added to a known amount of solvent and the sample was rotated with a vial rotator (VWR) at room temperature. If the API completely dissolved, an additional known amount was added. The samples were rotated for at least 48 hours after the last API addition before determining the gravimetric result (i.e., greater than a % w/w or less than a % w/w).

[3] = Stability of rapamycin in solvents PG, TC, DMI; type: physicochemical; details: 0.2% w/w in DMI, 1 week at 5, 25, 40° C. (FIG. 3)
[4] = Antioxidant screen in Transcutol; type: physicochemical
Procedure: Since there was significant degradation in diethylene glycol monoethyl ether (TC) after 1 week, and TC can generate peroxides, it was selected as the solvent for the antioxidant screen. […] (1) No antioxidant; […] […] The 4-week data at 40° C. was used to calculate the main effects of the two antioxidants and their interaction (Box et al., 1978) for the assay values. The positive effect of BHA (+23.8) was twice the positive effect of Vit. E (+11.6).

physchem = details: thermodynamic from solid
Procedure: (§1) All solutions were buffered with 5 mM citrate buffer at pH 4.5.

[5] = Microscopic examination of rapamycin crystal growth; details: rectangular crystals in gels showing crystal growth
[6] = Saturation solubility in solvents and 10% co-solvent aqueous solutions
Procedure: as §1

Question: Which results are given for `CO[C@H]1C[C@@H]2CC[C@@H](C)[C@@](O)(O2)C(=O)C(=O)N2CCCC[C@H]2C(=O)O[C@H]([C@H](C)C[C@@H]2CC[C@@H](O)[C@H](OC)C2)CC(=O)[C@H](C)/C=C(\C)[C@@H](O)[C@@H](OC)C(=O)[C@H](C)C[C@H](C)/C=C/C=C/C=C/1C` [Rapamycin, rapamycin]?
Answer: rapamycin pH stability [1]: more stable at an acidic pH; Rapamycin solubility % w/w ([2]; Diethylene glycol monoethyl ether (TC)): >13 % w/w; Rapamycin solubility % w/w ([2]; Diisopropyl adipate): <1.0 % w/w; Rapamycin solubility % w/w ([2]; Dimethyl isosorbide (DMI)): >7 % w/w; Rapamycin solubility % w/w ([2]; Hexylene glycol): <1.0 % w/w; Rapamycin solubility % w/w ([2]; Isopropyl myristate): <0.1 % w/w; Rapamycin solubility % w/w ([2]; Light mineral oil): <0.3 % w/w; Rapamycin solubility % w/w ([2]; Medium chain triglycerides): <0.1 % w/w; Rapamycin solubility % w/w ([2]; Octyldodecanol): <1.0 % w/w; Rapamycin solubility % w/w ([2]; PEG 400): <1.5 % w/w; Rapamycin solubility % w/w ([2]; Propylene glycol (PG), room temperature): <0.75 % w/w; solvent compatibility (solution stability) [3]: most compatible with propylene glycol (PG) and least compatible with dimethyl isosorbide (DMI); Rapamycin Assay (% of Initial) ([4]; 0.002% Vit. E, 25° C., week 1): 98.3 % of Initial; Rapamycin Assay (% of Initial) ([4]; 0.002% Vit. E, 25° C., week 4): 98.2 % of Initial; Rapamycin Assay (% of Initial) ([4]; 0.002% Vit. E, 40° C., week 1): 96.8 % of Initial; Rapamycin Assay (% of Initial) ([4]; 0.002% Vit. E, 40° C., week 2): 97.0 % of Initial; Rapamycin Assay (% of Initial) ([4]; 0.002% Vit. E, 40° C., week 4): 82.2 % of Initial; Rapamycin Assay (% of Initial) ([4]; 0.01% BHA, 25° C., week 1): 99.2 % of Initial; Rapamycin Assay (% of Initial) ([4]; 0.01% BHA, 25° C., week 4): 98.3 % of Initial; Rapamycin Assay (% of Initial) ([4]; 0.01% BHA, 40° C., week 1): 97.1 % of Initial; Rapamycin Assay (% of Initial) ([4]; 0.01% BHA, 40° C., week 2): 98.1 % of Initial; Rapamycin Assay (% of Initial) ([4]; 0.01% BHA, 40° C., week 4): 94.4 % of Initial; Rapamycin Assay (% of Initial) ([4]; 0.2% w/w in Transcutol, No Antioxidant, 25° C., week 1): 95.7 % of Initial; Rapamycin Assay (% of Initial) ([4]; BHA + Vit. E, 25° C., week 1): 98.8 % of Initial; Rapamycin Assay (% of Initial) ([4]; BHA + Vit. E, 25° C., week 4): 98.7 % of Initial; Rapamycin Assay (% of Initial) ([4]; BHA + Vit. E, 40° C., week 1): 96.9 % of Initial; Rapamycin Assay (% of Initial) ([4]; BHA + Vit. E, 40° C., week 2): 98.7 % of Initial; Rapamycin Assay (% of Initial) ([4]; BHA + Vit. E, 40° C., week 4): 96.2 % of Initial; Rapamycin Assay (% of Initial) ([4]; No Antioxidant, 25° C., week 4): 84.6 % of Initial; Rapamycin Assay (% of Initial) ([4]; No Antioxidant, 40° C., week 1): 87.3 % of Initial; Rapamycin Assay (% of Initial) ([4]; No Antioxidant, 40° C., week 2): 79.0 % of Initial; Rapamycin Assay (% of Initial) ([4]; No Antioxidant, 40° C., week 4): 60.8 % of Initial; solubility (physchem; 10% TC and 10% DMI aqueous solutions versus water, pH 4.5, aqueous with cosolvent or surfactant or cyclodextrin): 1.5 to 2 µg/mL (≈ 1.64 to 2.19 µM); solubility (physchem; 10% propylene glycol (PG) aqueous solution, citrate buffered, pH 4.5, aqueous with cosolvent or surfactant or cyclodextrin): 2.9 µg/mL (≈ 3.17 µM); solubility (physchem; pH 4.5, aqueous with cosolvent or surfactant or cyclodextrin): 5.2 µg/mL (≈ 5.69 µM); solubility (physchem; water, citrate buffered, pH 4.5, aqueous buffer): 2.9 µg/mL (≈ 3.17 µM); length of rapamycin crystals grown [5]: 25-100 microns; Rapamycin Solubility ([6]; 10% Diethylene Glycol Monoethyl Ether (TC), pH 4.5, 5 mM citrate): 4.6 µg/mL; saturation solubility ([6]; in TC): 15.5 % w/w
